A short description of data set [1]: Stability of Form A at different humidity values and temperatures. Format: physicochemical. From the text:
The stability of the Form A (named also as Compound 1) of the sodium salt of R)-4-(1-(6-(4-(trifluoromethyl)benzyl)-6-azaspiro[2.5]octane-5-carboxamido)cyclopropyl)benzoic acid at different humidity values and temperatures was investigated.

For data set [2], the system named is TNF-α gene expression in human THP-1 macrophages. As to the kind of experiment: TNF-α gene expression in THP-1 cells differentiated to macrophages (LPS + PGE2), RT-PCR. It counts as cell-based. The settings on record: LPS 10 ng/ml + PGE2 10 nM, 3 hours, concentration as low as 0.1 μM. On the procedure:
The human monocyte cell line THP-1, obtained from the ATCC, was grown according to the instructions provided. THP-1 cells were differentiated to macrophages with 100 nM phorbol 12-myristate 13-acetate (PMA) (Sigma Aldrich) for 4 days. Macrophages were then stimulated with lipopolysaccharide (LPS) (Sigma Aldrich) 10 ng/ml and PGE2 0.01 μM for 3 hours. Total RNA was purified using the ABI Prism 6100 Nucleic Acid PrepStation (Applied Biosystems, Foster City, CA, USA) and retrotranscribed using the High-Capacity cDNA Reverse Transcription Kit (Thermo Fisher Scientific). RT-PCR analysis was performed using the Applied Biosystems 7500 Fast Real-Time PCR System using specific TaqMan assays (number Hs00174128_m1; Thermo Fisher Scientific) and, as an endogenous control, the 18S Pre-Developed TaqMan® Assay (Thermo Fisher Scientific). The data analysis, with normalisation on 18S amplified values, was done following Thermo Fisher Scientific's specific instructions for gene expression relative quantification. All individual data are the result of at least three different analyses for each sample.
To evaluate the Compound 1 potential in counteracting the PGE2 induced inhibition of TNF-α gene expression in human macrophages, THP-1 cells were differentiated to macrophages and subsequently treated with LPS 10 ng/ml plus PGE2 10 nM+Compound 1 in the 0.01 μM to 10 μM concentrations range for 3 hours.

In data set [3] the test system is RANK-L gene expression in MDA-MB-231 cells. The experiment in a line: RANK-L gene expression in MDA-MB-231 cells stimulated with PGE2, RT-PCR. Particulars: 10 μM compound + 10 μM PGE2, 24 hours. It counts as cell-based, human. The protocol: The human mammary gland adenocarcinoma MDA-MB-231 cells were obtained from ATCC and grown according to the instructions provided.
Cells were treated with 10 μM PGE2+Compound 1 10 μM for 24 hours. Total RNA was purified using the ABI Prism 6100 Nucleic Acid PrepStation (Applied Biosystems, Foster City, CA, USA) and retrotranscribed using the High-Capacity cDNA Reverse Transcription Kit (Thermo Fisher Scientific). RT-PCR analysis was performed using the Applied Biosystems 7500 Fast Real-Time PCR System using specific TaqMan assays (Hs00243522_m1; Thermo Fisher Scientific) and, as an endogenous control, the 18S Pre-Developed TaqMan® Assay (Thermo Fisher Scientific). The data analysis, with normalisation on 18S amplified values, was done following Thermo Fisher Scientific specific instructions for gene expression relative quantification. All individual data are the result of at least three different analyses for each sample.
MDA-MB-231 cells treated with 10 μM PGE2+Compound 1 10 μM for 24 hours and the levels of RANKL gene expression were evaluated by quantitative RT-PCR.

Data set [4] relates to Th-17 cells differentiation of human CD4+ naïve T cells. The experiment in a line: Ex vivo human Th-17 cells differentiation (flow cytometry). Format: cell-based. Particulars: 0.03 μM PGE2, 48 hours. The protocol: Peripheral blood mononuclear cells (PBMC) were isolated from healthy volunteers using density gradient centrifugation and CD4+naïve T cells were enriched from PBMCs using human naïve CD4+ T cell isolation kit (Miltenyi Biotech). Isolated CD4+ T cells were maintained in RPMI medium and differentiated toward Th-17 cells by stimulation with IL-12 and IL-2, both 5 ng/ml in combination with 1.5 ng/ml of antibodies anti CD3 and anti CD28 and 0.03 μM PGE2+Compound 1 at concentration of 0.01-0.03-0.1-0.3 μM for 48 hours.
At the end of incubation time cells were stained with fluorescence-conjugated antibodies specific for CD4, CCR6, CD45, CD25 and IL-17 (all from BD Bioscience). Finally, the number of Th-17 cells was determined by flow cytometry and the events were measured by Fluorescence Activated Cell Sorter (FACS; BD Bioscience) and analyzed with dedicated software.

Data set [5] concerns Treg differentiation of human CD4+ naïve T cells. As to the kind of experiment: Ex vivo human T regulatory cells differentiation (flow cytometry). Format: cell-based. Particulars: 0.1 μM compound, 0.03 μM PGE2, 144 hours. The protocol:
Peripheral blood mononuclear cells (PBMC) were isolated from healthy volunteers using density gradient centrifugation and CD4+naïve T cells were enriched from PBMCs using human naïve CD4+ T cell isolation kit (Miltenyi Biotech). Isolated CD4+ T cells were maintained in RPMI medium and differentiated toward a Treg phenotype using two interleukins, namely, rIL23 and rIL-1B, both at a concentration of 10 ng/ml and co-stimulated with PGE2 at 30 nM concentration over a 144 hours incubation period.
At the end of incubation cells were stained with fluorescence conjugated antibodies specific for CD3, CD4, FoxP3, CD25, IL35 and CRTH2 (all from BD Bioscience). Finally, the number of Treg cells was determined by flow cytometry and the events were measured by Fluorescence Activated Cell Sorter (FACS; BD Bioscience) and analyzed with dedicated software.

Data set [6] in a line: Physical and chemical stability testing of solid forms (mechanical, thermal stress).

Consider `O=C([O-])c1ccc(C2(NC(=O)[C@H]3CC4(CCN3Cc3ccc(C(F)(F)F)cc3)CC4)CC2)cc1.[Na+]` [Compound 1, sodium (R)-4-(1-(6-(4-(trifluoromethyl)benzyl)-6-azaspiro[2.5]octane-5-carboxamido)cyclopropyl)benzoate], for which the Stability result is listed as “Stable >24 hours” in data set [1] (Powder, 50% RH −30° C.); “Stable >5 days” in data set [1] (Powder, 80° C.); “Stable >1 month” in data set [1] (Powder, RT); “Stable >3 months” in data set [1] (Sealed foil/Poly bag, 70% RH −40° C.). Also, the “TNF-α gene expression vs cells treated with PGE2+LPS only” value in data set [2] is reported as “two to three fold increase”. In data set [3], the “RANK-L gene expression vs 10 μM PGE2” value is reported as “markedly decreased”. Further, the “concentration at which plateau of maximal effect on Th-17 cells is reached” value in data set [4] is listed as “above 0.1 μM”. The “number of naïve Th-17 cells” value in data set [4] (0.01-0.3 μM) is listed as “marked decrease”. Besides, in data set [5], the Treg cell differentiation result was “significantly decreased”. In addition, in data set [6], the “thermodynamic stability of the form” value is given as “most thermodynamically stable anhydrous form”. Moreover, in data set [6] (mechanical or thermal stress), the “physical stability (conversion to amorphous form)” value was “more stable towards amorphization by thermal stress”.

Source of the values: patent US12544365B2, “Pharmaceutical combination of an EP4 antagonist and immune checkpoint inhibitors for the treatment of tumours” (ROTTAPHARM BIOTECH S.R.L., priority 2019, dated 2026).
